Results as given in ChEMBL document CHEMBL1201862, “PubChem BioAssay data set” (2004).
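48-hour exposure; five concentrations; linearly interpolated endpoints. GI50 marks 50% less growth.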 Calls of active or inactive are those of the source. Cut-off read from the data, not from the text of the source: active = GI50 up to about 1.1 µM and inactive = higher.

How the values were obtained:
Experiment in all cases: growth of human tumour cells (NCI), 48 h
A498 = test system: A498
ACHN = test system: ACHN
HCC 2998 = test system: HCC 2998
HCT-15 = test system: HCT-15
HL-60 = test system: HL-60
HOP-62 = test system: HOP-62
M14 = test system: M14
Malme-3M = test system: Malme-3M
NCI-H226 = test system: NCI-H226
NCI-H23 = test system: NCI-H23
RPMI-8226 = test system: RPMI-8226
SK-MEL-5 = test system: SK-MEL-5
SNB-75 = test system: SNB-75
SW-620 = test system: SW-620
TK-10 = test system: TK-10
UACC-62 = test system: UACC-62
UO-31 = test system: UO-31
RXF 393 = test system: RXF 393
SF-539 = test system: SF-539

SMILES	GI50 (A498)	GI50 (ACHN)	GI50 (HCC 2998)	GI50 (HCT-15) [µM]	GI50 (HL-60)	GI50 (HOP-62)	GI50 (M14)	GI50 (Malme-3M)	GI50 (NCI-H226)	GI50 (NCI-H23)	GI50 (RPMI-8226)	GI50 (SK-MEL-5)	GI50 (SNB-75)	GI50 (SW-620)	GI50 (TK-10)	GI50 (UACC-62)	GI50 (UO-31)	GI50 (RXF 393)	GI50 (SF-539)
O=c1cccccc1NCCCCCCNc1cccccc1=O	> 100 µM (inactive)	> 100 µM (inactive)	> 100 µM (inactive)	> 100	> 100 µM (inactive)	> 100 µM (inactive)	> 100 µM (inactive)	> 100 µM (inactive)	> 100 µM (inactive)	> 100 µM (inactive)	> 100 µM (inactive)	> 100 µM (inactive)	57.7 µM (inactive)	> 100 µM (inactive)	> 100 µM (inactive)	> 100 µM (inactive)	> 100 µM (inactive)		
O=C(CC(=O)c1ccccc1)CC(O)(c1ccccc1)c1ccccc1	12.1 µM (inactive)	6.27 µM (inactive)	10.6 µM (inactive)	4.89	2.01 µM (inactive)	3.34 µM (inactive)	3.61 µM (inactive)	11 µM (inactive)	3.87 µM (inactive)	3.37 µM (inactive)	4.05 µM (inactive)	3.52 µM (inactive)	9.55 µM (inactive)	4.02 µM (inactive)	9.82 µM (inactive)	3.21 µM (inactive)	5.7 µM (inactive)		
O=C(Cc1ccccc1)NN1C(=O)C(Cl)C1c1ccc(Cl)cc1 (configuration not stated)		> 100 µM (inactive)	> 100 µM (inactive)	> 100	92.7 µM (inactive)	> 100 µM (inactive)	> 100 µM (inactive)	> 100 µM (inactive)	> 100 µM (inactive)	> 100 µM (inactive)	51.4 µM (inactive)	> 100 µM (inactive)	84.5 µM (inactive)	> 100 µM (inactive)	> 100 µM (inactive)	> 100 µM (inactive)	62.4 µM (inactive)	> 100 µM (inactive)	
CC(C)Cc1cccc(C(C)C)c1NC(=O)CCC(=O)N/N=C1\C(=N/NC(=O)CCC(=O)Nc2c(C(C)C)cccc2C(C)C)C(c2ccc3c(c2)OCO3)Oc2ccccc21 (configuration not stated)	> 100 µM (inactive)	83 µM (inactive)	> 100 µM (inactive)	17.1	34.2 µM (inactive)	71.9 µM (inactive)	> 100 µM (inactive)		> 100 µM (inactive)	> 100 µM (inactive)	59.2 µM (inactive)	> 100 µM (inactive)	49.2 µM (inactive)	46 µM (inactive)	> 100 µM (inactive)	78.3 µM (inactive)	43.6 µM (inactive)	34.9 µM (inactive)	97.7 µM (inactive)
CC(C)(C)OC(=O)NCCc1ccc(N)cc1		> 100 µM (inactive)	> 100 µM (inactive)	> 100	17.5 µM (inactive)	> 100 µM (inactive)	> 100 µM (inactive)	> 100 µM (inactive)			58.6 µM (inactive)	33 µM (inactive)		> 100 µM (inactive)	> 100 µM (inactive)	> 100 µM (inactive)	4.2 µM (inactive)		
S=C(N/N=C/c1ccccc1)NC12CC3CC(CC(C3)C1)C2	63.4 µM (inactive)	51.8 µM (inactive)		47.8	31.2 µM (inactive)	> 100 µM (inactive)	46.6 µM (inactive)		97.7 µM (inactive)	55.8 µM (inactive)	22 µM (inactive)	27.2 µM (inactive)		30.5 µM (inactive)	> 100 µM (inactive)	27.5 µM (inactive)	> 100 µM (inactive)	23.7 µM (inactive)	12.4 µM (inactive)
COC1(Cc2ccccc2)C(=O)c2ccccc2N1C(C)=O (configuration not stated)	> 100 µM (inactive)	> 100 µM (inactive)	> 100 µM (inactive)	> 100	> 100 µM (inactive)	> 100 µM (inactive)	> 100 µM (inactive)			> 100 µM (inactive)	> 100 µM (inactive)		> 100 µM (inactive)	> 100 µM (inactive)		> 100 µM (inactive)	> 100 µM (inactive)	> 100 µM (inactive)	> 100 µM (inactive)
COc1ccc(C=O)c(NC(=O)C(C)C)c1	49.7 µM (inactive)	29.8 µM (inactive)		33.3			37.6 µM (inactive)	27.4 µM (inactive)	> 10 µM (inactive)	26 µM (inactive)	20.5 µM (inactive)	> 10 µM (inactive)	30.6 µM (inactive)	> 10 µM (inactive)	85.7 µM (inactive)	30.3 µM (inactive)	33.3 µM (inactive)	12.3 µM (inactive)	40.4 µM (inactive)
O=c1cc2ccccc2nn1Cc1ccccc1Cl	> 100 µM (inactive)	> 100 µM (inactive)	> 100 µM (inactive)	> 100		> 100 µM (inactive)	> 100 µM (inactive)	> 100 µM (inactive)	> 100 µM (inactive)	88.9 µM (inactive)	92.5 µM (inactive)	> 100 µM (inactive)	25.3 µM (inactive)	> 100 µM (inactive)	> 100 µM (inactive)	89.7 µM (inactive)	29.5 µM (inactive)		> 100 µM (inactive)
CC(=O)C(CN(C)C)C(c1ccccc1)c1c(O)c2ccccc2oc1=O (configuration not stated)		> 100 µM (inactive)	> 100 µM (inactive)	> 100	> 100 µM (inactive)	> 100 µM (inactive)	> 100 µM (inactive)	> 100 µM (inactive)	> 100 µM (inactive)	> 100 µM (inactive)	> 100 µM (inactive)	> 100 µM (inactive)	14.3 µM (inactive)	> 100 µM (inactive)	> 100 µM (inactive)	> 100 µM (inactive)		> 100 µM (inactive)	> 100 µM (inactive)
COc1ccc(/C=C2/SC(c3ccc(Cl)cc3)N(NC(=O)CCCCCCCCC(=O)NN3C(=O)/C(=C\c4ccc(OC)c(OC)c4)SC3c3ccc(Cl)cc3)C2=O)cc1OC (configuration not stated)	24.4 µM (inactive)	65.2 µM (inactive)	> 100 µM (inactive)	> 100		25.8 µM (inactive)	44.1 µM (inactive)		> 100 µM (inactive)	20.4 µM (inactive)	> 100 µM (inactive)	50.1 µM (inactive)	> 100 µM (inactive)	> 100 µM (inactive)	75.2 µM (inactive)	29.3 µM (inactive)	27.7 µM (inactive)	28 µM (inactive)	29.2 µM (inactive)
CCOc1ccc(C2=C(Cl)c3cc(OC)c(OC)cc3C2Cl)cc1 (configuration not stated)	19.8 µM (inactive)	31.6 µM (inactive)		27.1	13.4 µM (inactive)		35.8 µM (inactive)	33.8 µM (inactive)	30.8 µM (inactive)	44.4 µM (inactive)	21.3 µM (inactive)	18.3 µM (inactive)	44.1 µM (inactive)	29.2 µM (inactive)	79.8 µM (inactive)	26.2 µM (inactive)	45 µM (inactive)		29.8 µM (inactive)
O=C(O)C(Cl)(Cl)Cl		> 100 µM (inactive)	> 100 µM (inactive)	> 100	> 100 µM (inactive)		> 100 µM (inactive)	> 100 µM (inactive)	> 100 µM (inactive)	> 100 µM (inactive)	> 100 µM (inactive)	> 100 µM (inactive)	63.1 µM (inactive)	> 100 µM (inactive)	> 100 µM (inactive)		> 100 µM (inactive)	> 100 µM (inactive)	> 100 µM (inactive)
